Biological target: OXA-58 (Acinetobacter baumannii, UniProt Q2TR58)
Test: time-resolved X-ray crystallography of the acyl-enzyme complex
Format: biochemical
Conditions: read-out: Ki

Sequence of OXA-58 (Q2TR58 19-280): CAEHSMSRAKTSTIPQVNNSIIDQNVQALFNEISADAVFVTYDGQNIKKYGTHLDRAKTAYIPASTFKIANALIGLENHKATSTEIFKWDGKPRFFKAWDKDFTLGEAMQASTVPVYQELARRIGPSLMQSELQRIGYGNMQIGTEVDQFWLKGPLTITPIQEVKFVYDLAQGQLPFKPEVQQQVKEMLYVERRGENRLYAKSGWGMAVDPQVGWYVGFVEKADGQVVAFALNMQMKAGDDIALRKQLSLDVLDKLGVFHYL

`CC(O)[C@H]1C(=O)N2C(C(=O)O)=C(S[C@H]3CNC(C(=O)N(C)C)C3)C[C@]12C` (stereo partly shown) [NA-1-157, NA-1–157] was tested, and the KI (inactivation) was 1.9 ± 0.3 µM.

From article PMC11972452 (ACS infectious diseases, 2024)
